Measurements from patent US20220386606A1, “SPECIFICALLY SUBSTITUTED 3-PHENYL-5-SPIROCYCLOPENTYL-3-PYRROLIN-2-ONES AND THEIR USE AS HERBICIDES” (Bayer Aktiengesellschaft, priority 2019, published 2022).

Legend:
[1] = test system: VIOTR; assay: Pre-emergence herbicidal action against VIOTR; format: in vivo, Viola tricolor; conditions: 320 g/ha
Outline: (§1)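 Visual scoring after 3 weeks in the greenhouse gives percent activity (100% = dead, 0% = like untreated). Compounds, formulated as WP or EC, were applied to the soil surface over freshly sown seeds in sandy loam, water rate 600 to 800 L/ha plus 0.2% wetting agent.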

[2] = test system: DIGSA; assay: Post-emergence herbicidal action against DIGSA; format: in vivo, Digitaria sanguinalis; conditions: 80 g/ha, visual assessment about 3 weeks after treatment vs untreated controls
Outline: (§2)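 Herbicidal action is rated visually in percent against untreated controls, where 100% means dead plants and 0% means no difference. Ratings come about 3 weeks after foliar spraying of one-leaf-stage plants with aqueous WP or EC preparations plus 0.2% wetting agent at 600 to 800 l/ha.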

[3] = test system: MATIN; assay: Pre-emergence herbicidal action against MATIN; format: in vivo; conditions: 320 g/ha
Outline: as §1

[4] = test system: POLCO; assay: Pre-emergence herbicidal action against POLCO; format: in vivo, Polygonum convolvulus; conditions: 320 g/ha
Description: Seeds of monocotyledonous and dicotyledonous weed plants and crop plants are laid out in sandy loam soil in wood-fiber pots and covered with soil. The compounds of the invention, formulated in the form of wettable powders (WP) or as emulsion concentrates (EC), are then applied to the surface of the covering soil as aqueous suspension or emulsion at a water application rate equating to 600 to 800 L/ha with addition of 0.2% wetting agent.
After the treatment, the pots are placed in a greenhouse and kept under good growth conditions for the trial plants. The damage to the test plants is scored visually after a test period of 3 weeks by comparison with untreated controls (herbicidal activity in percent (%): 100% activity=the plants have died, 0% activity=like control plants).

[5] = test system: SETVI; assay: Pre-emergence herbicidal action against SETVI; format: in vivo, Setaria viridis; conditions: 320 g/ha, scored visually after 3 weeks vs untreated controls
Outline: as §1

[6] = test system: ALOMY; assay: Pre-emergence herbicidal action against ALOMY; format: in vivo, Alopecurus myosuroides; conditions: 320 g/ha, scored visually after 3 weeks vs untreated controls
Outline: as §1

[7] = test system: SETVI; assay: Post-emergence herbicidal action against SETVI; format: in vivo, Setaria viridis; conditions: 80 g/ha, visual assessment about 3 weeks after treatment vs untreated controls
Outline: as §2

[8] = test system: LOLRI; assay: Pre-emergence herbicidal action against LOLRI (Table 8, titled post-emergence at 320 g/ha); format: in vivo, Lolium rigidum; conditions: table stands in the pre-emergence section
Outline: as §1

[9] = test system: LOLRI; assay: Post-emergence herbicidal action against LOLRI; format: in vivo, Lolium rigidum; conditions: 80 g/ha, visual assessment about 3 weeks after treatment vs untreated controls
Outline: as §2

[10] = test system: AVEFA; assay: Pre-emergence herbicidal action against AVEFA; format: in vivo, Avena fatua; conditions: 320 g/ha, scored visually after 3 weeks vs untreated controls
Outline: as §1

[11] = test system: AMARE; assay: Pre-emergence herbicidal action against AMARE; format: in vivo, Amaranthus retroflexus; conditions: 320 g/ha
Outline: as §1

[12] = test system: ECHCG; assay: Pre-emergence herbicidal action against ECHCG; format: in vivo, Echinochloa crus-galli; conditions: 320 g/ha, scored visually after 3 weeks vs untreated controls
Outline: as §1

[13] = test system: ECHCG; assay: Post-emergence herbicidal action against ECHCG; format: in vivo, Echinochloa crus-galli; conditions: 80 g/ha, visual assessment about 3 weeks after treatment vs untreated controls
Outline: as §2

[14] = test system: DIGSA; assay: Pre-emergence herbicidal action against DIGSA; format: in vivo, Digitaria sanguinalis; conditions: 320 g/ha, scored visually after 3 weeks vs untreated controls
Outline: as §1

[15] = test system: ALOMY; assay: Post-emergence herbicidal action against ALOMY; format: in vivo, Alopecurus myosuroides; conditions: 80 g/ha, visual assessment after about 3 weeks
Outline: as §2

[16] = test system: VERPE; assay: Pre-emergence herbicidal action against VERPE; format: in vivo, Veronica persica; conditions: 320 g/ha
Outline: as §1

[17] = test system: AVEFA; assay: Post-emergence herbicidal action against AVEFA; format: in vivo, Avena fatua; conditions: 80 g/ha, visual assessment after about 3 weeks
Outline: as §2

| Structure (SMILES) | Pre-emergence action against VIOTR in % [1] [%] | Post-emergence action against DIGSA in % [2] [%] | Pre-emergence action against MATIN in % [3] [%] | Pre-emergence action against POLCO in % [4] [%] | Pre-emergence action against SETVI in % [5] [%] | Pre-emergence action against ALOMY in % [6] [%] | Post-emergence action against SETVI in % [7] [%] | Pre-emergence herbicidal action against LOLRI in % [8] [%] | Post-emergence action against LOLRI in % [9] [%] | Pre-emergence action against AVEFA in % [10] [%] | Pre-emergence action against AMARE in % [11] [%] | Pre-emergence action against ECHCG in % [12] [%] | Post-emergence action against ECHCG in % [13] [%] | Pre-emergence action against DIGSA in % [14] [%] | Post-emergence action against ALOMY in % [15] [%] | Pre-emergence action against VERPE in % [16] [%] | Post-emergence action against AVEFA in % [17] [%] |
| --- | --- | --- | --- | --- | --- | --- | --- | --- | --- | --- | --- | --- | --- | --- | --- | --- | --- |
| C=CCOCC1CCC2(C1)NC(=O)C(c1c(C)cc(C#CC)cc1Cl)=C2O (stereo not shown) [Example I-46] | 100 | 90 | 90 | 90 | 100 | 100 | 100 | 100 | 90 | 90 | 100 | 100 | 100 | 100 | – | – | – |
| CC#Cc1cc(C)c(C2=C(OC(=O)OCC)C3(CCC(COCCC)C3)NC2=O)c(Cl)c1 (stereo not shown) [Example P-86] | 100 | 90 | 80 | 90 | 100 | 100 | 100 | 100 | 100 | 80 | 100 | 100 | 100 | 100 | 90 | 100 | – |
| CC#Cc1cc(C)c(C2=C(OC(=O)OCC)C3(CCC(COCCOC)C3)NC2=O)c(OC)c1 (stereo not shown) [Example P-80] | 100 | 90 | 90 | 90 | 100 | 100 | 100 | 100 | 90 | 100 | 90 | 100 | 100 | 100 | 100 | 100 | 90 |
| C#CCOCC1CCC2(C1)NC(=O)C(c1c(C)cc(C#CC)cc1Cl)=C2O (stereo not shown) [Example I-79] | 100 | 100 | 90 | 90 | 100 | 100 | 100 | 100 | 100 | 100 | 100 | 100 | 100 | 100 | 90 | 80 | 90 |
